Experimental data reported in paper PMC6210068 (ACS Omega, 2018).

Legend:
MOR = MOR (Homo sapiens, UniProt P35372); assay: biochemical; format: binding
rat kidney TSPO = rat kidney TSPO (Rattus norvegicus, UniProt P16257); assay: Radioligand binding at TSPO; conditions: for Ki: TSPO, rat TSPO, [3H]PK11195
DOR = DOR (Homo sapiens, UniProt P41143); assay: Radioligand binding at DOR; conditions: 10 μM
hDAT = hDAT (Homo sapiens, UniProt Q01959); assay: Radioligand binding at DAT; conditions: 10 μM; [3H]WIN35428; negative = enhanced radioligand binding
hDAT, sequence (Q01959 whole entry): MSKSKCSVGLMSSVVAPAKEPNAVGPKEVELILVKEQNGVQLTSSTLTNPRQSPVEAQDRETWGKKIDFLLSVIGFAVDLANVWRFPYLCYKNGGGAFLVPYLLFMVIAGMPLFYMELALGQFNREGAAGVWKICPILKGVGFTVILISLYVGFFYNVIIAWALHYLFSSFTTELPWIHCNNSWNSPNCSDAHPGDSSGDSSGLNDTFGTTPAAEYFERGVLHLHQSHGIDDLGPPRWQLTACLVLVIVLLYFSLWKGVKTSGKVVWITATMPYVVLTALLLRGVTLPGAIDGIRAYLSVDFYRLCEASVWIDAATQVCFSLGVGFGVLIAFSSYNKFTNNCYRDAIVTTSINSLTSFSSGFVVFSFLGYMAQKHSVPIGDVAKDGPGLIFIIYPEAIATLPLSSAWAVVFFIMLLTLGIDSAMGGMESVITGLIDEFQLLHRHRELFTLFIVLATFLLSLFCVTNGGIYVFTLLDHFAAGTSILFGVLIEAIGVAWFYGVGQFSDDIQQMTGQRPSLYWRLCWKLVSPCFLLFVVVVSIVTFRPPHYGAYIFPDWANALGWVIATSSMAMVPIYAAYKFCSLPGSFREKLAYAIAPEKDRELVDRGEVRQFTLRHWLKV

KOR = KOR (Homo sapiens, UniProt P41145); assay: biochemical; format: binding; conditions: for Ki: KOR, [3H]U69593, mean ± SEM, N = 2–4
KOR, sequence (P41145 whole entry): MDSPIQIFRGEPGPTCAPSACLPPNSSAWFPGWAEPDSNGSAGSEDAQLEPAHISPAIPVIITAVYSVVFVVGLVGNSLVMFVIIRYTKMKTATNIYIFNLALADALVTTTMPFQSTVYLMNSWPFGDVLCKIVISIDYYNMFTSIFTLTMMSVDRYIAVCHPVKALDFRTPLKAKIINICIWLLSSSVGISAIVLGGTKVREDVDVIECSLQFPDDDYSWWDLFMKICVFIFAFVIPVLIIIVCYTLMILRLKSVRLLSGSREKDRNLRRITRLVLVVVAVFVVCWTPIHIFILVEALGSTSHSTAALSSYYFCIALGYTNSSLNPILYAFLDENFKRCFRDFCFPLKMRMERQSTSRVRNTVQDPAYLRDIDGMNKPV

hA3AR = molecular target: T1, hA3AR (Homo sapiens, UniProt P0DMS8); assay: A3AR binding
T1 sequence (P0DMS8 1-318): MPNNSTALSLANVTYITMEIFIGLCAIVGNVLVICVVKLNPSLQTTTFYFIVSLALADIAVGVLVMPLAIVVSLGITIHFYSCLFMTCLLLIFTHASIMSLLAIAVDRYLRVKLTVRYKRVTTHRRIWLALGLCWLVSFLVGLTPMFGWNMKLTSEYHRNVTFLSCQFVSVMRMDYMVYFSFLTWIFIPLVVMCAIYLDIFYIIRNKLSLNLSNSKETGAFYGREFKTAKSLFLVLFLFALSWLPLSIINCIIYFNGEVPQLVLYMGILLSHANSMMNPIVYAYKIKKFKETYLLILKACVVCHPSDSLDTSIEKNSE

rat kidney TSPO, sequence (P16257 whole entry): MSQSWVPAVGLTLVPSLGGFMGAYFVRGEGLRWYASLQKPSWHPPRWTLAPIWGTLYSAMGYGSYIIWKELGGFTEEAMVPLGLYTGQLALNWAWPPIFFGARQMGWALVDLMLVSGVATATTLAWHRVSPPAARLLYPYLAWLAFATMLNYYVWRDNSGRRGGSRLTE
MOR, sequence (P35372 whole entry): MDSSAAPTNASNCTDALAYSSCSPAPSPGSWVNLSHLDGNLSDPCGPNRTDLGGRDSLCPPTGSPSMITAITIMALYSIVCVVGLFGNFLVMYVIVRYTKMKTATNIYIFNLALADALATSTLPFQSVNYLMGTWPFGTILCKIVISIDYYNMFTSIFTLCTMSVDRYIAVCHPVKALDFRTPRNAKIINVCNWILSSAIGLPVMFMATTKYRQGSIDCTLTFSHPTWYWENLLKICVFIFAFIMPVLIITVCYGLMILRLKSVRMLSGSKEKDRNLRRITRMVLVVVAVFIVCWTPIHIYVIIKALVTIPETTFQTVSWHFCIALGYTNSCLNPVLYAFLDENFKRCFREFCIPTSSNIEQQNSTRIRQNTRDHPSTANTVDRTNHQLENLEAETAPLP
DOR, sequence (P41143 whole entry): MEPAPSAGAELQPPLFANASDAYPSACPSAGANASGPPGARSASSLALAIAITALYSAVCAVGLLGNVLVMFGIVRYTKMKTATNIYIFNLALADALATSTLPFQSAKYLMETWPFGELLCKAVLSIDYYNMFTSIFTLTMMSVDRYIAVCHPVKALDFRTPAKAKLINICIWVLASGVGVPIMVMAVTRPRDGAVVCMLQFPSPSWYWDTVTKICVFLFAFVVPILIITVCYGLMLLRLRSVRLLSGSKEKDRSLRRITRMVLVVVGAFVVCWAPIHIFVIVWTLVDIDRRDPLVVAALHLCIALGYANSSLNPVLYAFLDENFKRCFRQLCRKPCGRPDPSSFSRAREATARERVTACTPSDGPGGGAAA

Molecule: Ala2-MePhe4-Glyol5-Enkephalin [compound 99, reference compound]
- Kd (MOR; read-out: radioligand Kd, MOR): 1.73 ± 0.14 nM

Molecule: CNc1nc(C#Cc2ccc(Cl)s2)nc2c1ncn2[C@H]1[C@H](O)[C@H](O)[C@]2(C(=O)OC(C)C)C[C@H]12 [compound 31]
- TSPO, inhibition of radioligand binding at 10 μM (class) (rat kidney TSPO; Table 2): ^d (<30% inhibition of radioligand binding at 10 μM)
- DOR, inhibition of radioligand binding at 10 μM (class) (DOR; Table 2): ^d (<30% inhibition of radioligand binding at 10 μM)
- DAT, inhibition, % of control at 10 μM (hDAT): <20%
- MOR, inhibition of radioligand binding at 10 μM (class) (MOR; Table 2): ^d (<30% inhibition of radioligand binding at 10 μM)
- Ki (KOR): ~400 nM
- KOR, inhibition of radioligand binding at 10 μM (class) (KOR; Table 2): ^d (<30% inhibition of radioligand binding at 10 μM)

Molecule: CNC(=O)[C@@]12C[C@@H]1[C@@H](n1cnc3c(NCc4cccc(Cl)c4)nc(Cl)nc31)[C@H](O)[C@@H]2O [compound 5]
- TSPO, inhibition of radioligand binding at 10 μM (class) (rat kidney TSPO; Table 1): ^f (<30% inhibition of radioligand binding at 10 μM)
- DOR, inhibition of radioligand binding at 10 μM (class) (DOR; Table 1): ^e (30–50% inhibition of radioligand binding at 10 μM)
- DAT, inhibition, % of control at 10 μM (hDAT): 3%

Molecule: CNC(=O)[C@@]12C[C@@H]1[C@@H](n1cnc3c(NC)nc(C#Cc4ccccc4)nc31)[C@H](O)[C@@H]2O [compound 12]
- TSPO, inhibition of radioligand binding at 10 μM (class) (rat kidney TSPO; Table 1): ^e (30–50% inhibition of radioligand binding at 10 μM)
- DOR, inhibition of radioligand binding at 10 μM (class) (DOR; Table 1): ^e (30–50% inhibition of radioligand binding at 10 μM)
- DAT, inhibition, % of control at 10 μM (hDAT): –211%

Molecule: CNC(=O)[C@H]1O[C@@H](n2cnc3c(NC)nc(C#Cc4ccc(Cl)s4)nc32)[C@H](O)[C@@H]1O [compound 45]
- DAT, inhibition, % of control at 10 μM (hDAT): –321%
- KOR, inhibition of radioligand binding at 10 μM (class) (KOR; Table 3): ^e (<30% inhibition of radioligand binding at 10 μM)

Molecule: CNc1nc(C#Cc2ccc(Cl)s2)nc2c1ncn2[C@H]1[C@H](O)[C@H](O)[C@]2(C(=O)O)C[C@H]12 [compound 38]
- TSPO, inhibition of radioligand binding at 10 μM (class) (rat kidney TSPO; Table 2): ^d (<30% inhibition of radioligand binding at 10 μM)
- DOR, inhibition of radioligand binding at 10 μM (class) (DOR; Table 2): ^d (<30% inhibition of radioligand binding at 10 μM)
- DAT, inhibition, % of control at 10 μM (hDAT): –50%
- MOR, inhibition of radioligand binding at 10 μM (class) (MOR; Table 2): ^d (<30% inhibition of radioligand binding at 10 μM)
- KOR, inhibition of radioligand binding at 10 μM (class) (KOR; Table 2): ^d (<30% inhibition of radioligand binding at 10 μM)

Molecule: O[C@@H]1[C@H](O)[C@@H]2C[C@@H]2[C@H]1n1cnc2c(NCc3cccc(Cl)c3)nc(C#Cc3ccc(F)c(F)c3)nc21 [compound 3]
- DOR, inhibition of radioligand binding at 10 μM (class) (DOR; Table 4): ^g (<30% inhibition of radioligand binding at 10 μM)
- DAT, inhibition, % of control at 10 μM (hDAT): 16%

Molecule: O[C@@H]1[C@H](O)[C@@H]2C[C@@H]2[C@H]1n1ccc2c(NC(C3CC3)C3CC3)nc(I)nc21 [compound 58, (1R,2R,3S,4R,5S)-4-(4-((Dicyclopropylmethyl)amino)-2-iodo-7H-pyrrolo[2,3-d]pyrimidin-7-yl)bicyclo[3.1.0]hexane-2,3-diol]
- TSPO, inhibition of radioligand binding at 10 μM (class) (rat kidney TSPO; Table 5): ^e (<30% inhibition of radioligand binding at 10 μM)
- DOR, inhibition of radioligand binding at 10 μM (class) (DOR; Table 5): ^e (<30% inhibition of radioligand binding at 10 μM)
- Ki (hA3AR): 5310 ± 1310 nM
- MOR, inhibition of radioligand binding at 10 μM (class) (MOR; Table 5): ^e (<30% inhibition of radioligand binding at 10 μM)
- KOR, inhibition of radioligand binding at 10 μM (class) (KOR; Table 5): ^e (<30% inhibition of radioligand binding at 10 μM)

Molecule: O[C@@H]1[C@H](O)[C@@H]2C[C@@H]2[C@H]1n1cnc2c(NCc3cccc(Cl)c3)ncnc21 [compound 48]
- TSPO, inhibition of radioligand binding at 10 μM (class) (rat kidney TSPO; Table 4): ^g (<30% inhibition of radioligand binding at 10 μM)
- DOR, inhibition of radioligand binding at 10 μM (class) (DOR; Table 4): ^g (<30% inhibition of radioligand binding at 10 μM)
- DAT, inhibition, % of control at 10 μM (hDAT): –2%

Molecule: CNC(=O)[C@@]12C[C@@H]1[C@@H](n1cnc3c(NCc4cccc(Cl)c4)nc(C#Cc4ccccc4Cl)nc31)[C@H](O)[C@@H]2O [compound 8]
- Ki (rat kidney TSPO): ~300 nM
- DOR, inhibition of radioligand binding at 10 μM (class) (DOR; Table 1): f (<30% inhibition of radioligand binding at 10 μM)
- DAT, inhibition, % of control at 10 μM (hDAT): 50%

Molecule: CNc1nc(C#Cc2ccc(Cl)s2)nc2c1ncn2[C@H]1[C@H](O)[C@H](O)[C@]2(C(=O)OCCc3ccccc3)C[C@H]12 [compound 36]
- TSPO, inhibition of radioligand binding at 10 μM (class) (rat kidney TSPO; Table 2): ^d (<30% inhibition of radioligand binding at 10 μM)
- DOR, inhibition of radioligand binding at 10 μM (class) (DOR; Table 2): ^d (<30% inhibition of radioligand binding at 10 μM)
- Ki (hA3AR): 114 ± 64 nM
- DAT, inhibition, % of control at 10 μM (hDAT): <20%
- MOR, inhibition of radioligand binding at 10 μM (class) (MOR; Table 2): ^d (<30% inhibition of radioligand binding at 10 μM)
- Ki (KOR): 3670 ± 1640 nM

Molecule: O[C@@H]1[C@H](O)[C@@H]2C[C@@H]2[C@H]1n1cnc2c(NCC(c3ccccc3)c3ccccc3)nc(C#Cc3ccccc3)nc21 [compound 53]
- Ki (rat kidney TSPO): 3570 ± 1820 nM
- DOR, inhibition of radioligand binding at 10 μM (class) (DOR; Table 4): ^g (<30% inhibition of radioligand binding at 10 μM)
- DAT, inhibition, % of control at 10 μM (hDAT): 17%

Molecule: CNC(=O)[C@@]12C[C@@H]1[C@@H](n1cnc3c(NC)cc(C#Cc4ccc(Cl)s4)nc31)[C@H](O)[C@@H]2O [compound 16]
- TSPO, inhibition of radioligand binding at 10 μM (class) (rat kidney TSPO; Table 1): ^e (30–50% inhibition of radioligand binding at 10 μM)
- DOR, inhibition of radioligand binding at 10 μM (class) (DOR; Table 1): ^e (30–50% inhibition of radioligand binding at 10 μM)
- DAT, inhibition, % of control at 10 μM (hDAT): 1%

Molecule: CNc1nc(C#Cc2ccc(Cl)s2)nc2c1ncn2[C@H]1[C@H](O)[C@H](O)[C@]2(C(=O)OCCC3CCCCC3)C[C@H]12 [compound 34]
- TSPO, inhibition of radioligand binding at 10 μM (class) (rat kidney TSPO; Table 2): ^c (30–50% inhibition of radioligand binding at 10 μM)
- DOR, inhibition of radioligand binding at 10 μM (class) (DOR; Table 2): ^c (30–50% inhibition of radioligand binding at 10 μM)
- Ki (hA3AR): 334 ± 132 nM
- DAT, inhibition, % of control at 10 μM (hDAT): <20%
- MOR, inhibition of radioligand binding at 10 μM (class) (MOR; Table 2): ^d (<30% inhibition of radioligand binding at 10 μM)
- Ki (KOR): > 10000 nM

Molecule: CNc1nc(C#Cc2ccccc2)nc2c1ncn2[C@H]1[C@H](O)[C@H](O)[C@@H]2C[C@@H]21 [compound 49]
- TSPO, inhibition of radioligand binding at 10 μM (class) (rat kidney TSPO; Table 4): ^f (30–50% inhibition of radioligand binding at 10 μM)
- DOR, inhibition of radioligand binding at 10 μM (class) (DOR; Table 4): ^g (<30% inhibition of radioligand binding at 10 μM)
- DAT, inhibition, % of control at 10 μM (hDAT): –213%

Molecule: CNC(=O)[C@@]12C[C@@H]1[C@@H](n1cnc3c(NC)nc(C#Cc4ccc(Br)s4)nc31)[C@H](O)[C@@H]2O [compound 15]
- TSPO, inhibition of radioligand binding at 10 μM (class) (rat kidney TSPO; Table 1): ^f (<30% inhibition of radioligand binding at 10 μM)
- DOR, inhibition of radioligand binding at 10 μM (class) (DOR; Table 1): ^e (30–50% inhibition of radioligand binding at 10 μM)
- DAT, inhibition, % of control at 10 μM (hDAT): –235%

Molecule: CNc1nc(C#Cc2ccc(Cl)s2)nc2c1ncn2[C@H]1[C@H](O)[C@H](O)[C@]2(C(=O)OCCC(C)C)C[C@H]12 [compound 33]
- Ki (rat kidney TSPO): > 10000 nM
- DOR, inhibition of radioligand binding at 10 μM (class) (DOR; Table 2): ^d (<30% inhibition of radioligand binding at 10 μM)
- DAT, inhibition, % of control at 10 μM (hDAT): –196 ± 58%
- MOR, inhibition of radioligand binding at 10 μM (class) (MOR; Table 2): ^d (<30% inhibition of radioligand binding at 10 μM)
- Ki (KOR): 1090 ± 320 nM

Molecule: CCCCOC(=O)[C@@]12C[C@@H]1[C@@H](n1cnc3c(NC)nc(C#Cc4ccc(Cl)s4)nc31)[C@H](O)[C@@H]2O [compound 32]
- Ki (rat kidney TSPO): > 10000 nM
- DOR, inhibition of radioligand binding at 10 μM (class) (DOR; Table 2): ^d (<30% inhibition of radioligand binding at 10 μM)
- DAT, inhibition, % of control at 10 μM (hDAT): –285%
- MOR, inhibition of radioligand binding at 10 μM (class) (MOR; Table 2): ^d (<30% inhibition of radioligand binding at 10 μM)
- Ki (KOR): 1210 ± 100 nM

Molecule: CNC(=O)[C@@]12C[C@@H]1[C@@H](n1ccc3c(NC)ncnc31)[C@H](O)[C@@H]2O [compound 17]
- TSPO, inhibition of radioligand binding at 10 μM (class) (rat kidney TSPO; Table 1): ^e (30–50% inhibition of radioligand binding at 10 μM)
- DOR, inhibition of radioligand binding at 10 μM (class) (DOR; Table 1): ^e (30–50% inhibition of radioligand binding at 10 μM)
- Ki (hA3AR): 498 ± 46 nM
- DAT, inhibition, % of control at 10 μM (hDAT): –14%

Molecule: CNC(=O)[C@@]12C[C@@H]1[C@@H](n1cnc3c(NC)nc(C#Cc4ccc(F)c(F)c4)nc31)[C@H](O)[C@@H]2O [compound 11]
- TSPO, inhibition of radioligand binding at 10 μM (class) (rat kidney TSPO; Table 1): ^e (30–50% inhibition of radioligand binding at 10 μM)
- DOR, inhibition of radioligand binding at 10 μM (class) (DOR; Table 1): ^e (30–50% inhibition of radioligand binding at 10 μM)
- DAT, inhibition, % of control at 10 μM (hDAT): –322%

Molecule: CNC(=O)[C@@]12C[C@@H]1[C@@H](n1cnc3c(NC)nc(C#Cc4ccc(Cl)s4)nc31)[C@H](O)[C@@H]2O [compound 14]
- Ki (rat kidney TSPO): 684 ± 175 nM
- DOR, inhibition of radioligand binding at 10 μM (class) (DOR; Table 1): ^e (30–50% inhibition of radioligand binding at 10 μM)
